Entries after “also recorded” stand apart in the source; their conditions may differ. Counter-ions that a name gives are not always drawn.
Assays:
[1] = system: mice; experiment: Overall behavior and reactivities in mice; format: in vivo, mouse; details: i.p.
Procedure: In the neuropsychopharmacological study which follows, a solution of CRL 41 153 in distilled water (pH 1.5) was administered intraperitoneally in a volume of 20 ml/kg to male mice and 5 ml/kg to male rats.
Groups of three animals are observed before and then 0.25 hour, 0.50 hour, 1 hour, 2 hours, 3 hours and 24 hours after the administration of CRL 41 153.

[2] = system: mice; experiment: Interaction with reserpine; format: in vivo, mouse; details: i.p.
Procedure: Four hours after the intraperitoneal injection of 2.5 mg/kg of reserpine, groups of 6 mice receive CRL 41 153.

[3] = system: dogs; experiment: Cardiovascular study in anesthetized dogs; format: in vivo, dog; details: anesthetized dogs
In short: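 Nembutal-anaesthetized dogs (~14 kg) given CRL 41 194 (n=2) or CRL 41 221 (n=4) intraduodenally at successive 0.1, 0.5, 1, 2.5, 5 and 10 mg/kg doses. Blood pressure, heart rate, femoral and vertebral flow, rectal temperature measured; skin colour observed, plus bile colour (CRL 41 194).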

[4] = system: gravid White New Zealand female rabbits; experiment: Teratogenicity in gravid White New Zealand rabbits; format: in vivo, rabbit; details: day 5 to day 18 of gestation; for Affected foetuses, %: normal limit 1.5%
In short: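 Fetuses harvested by cesarean on gestation day 29 were scored for number and for any malformation (limb blockade, anury, tail or skull defects, exencephaly).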

CC(C)NC(C)C(=O)c1ccc(N)cc1 (stereo not shown) [CRL 41 153, 1-(4-aminophenyl)-2-isopropylaminopropanone dihydrochloride]
Observed symptoms ([1]; 0.5 mg/kg): no particular symptoms
Observed symptoms ([1]; 2 mg/kg, dihydrochloride): excitation of low intensity 0.5 hour after administration; also recorded: stereotypies for 1 hour; also recorded: an increase in the fear reaction (for 1 hour) and in the reactivity to touch (2 to 3 hours after administration)
Observed symptoms ([1]; 8 mg/kg, dihydrochloride): excitation for 3 hours; also recorded: an increase in the fear reaction (for 3 hours) and in the reactivity to touch (for 24 hours)
Hyperthermia (temperature change) ([1]; 32 mg/kg, 0.5 hour after administration): +1.1 °C
Observed symptoms ([1]; 32 mg/kg, dihydrochloride): excitation and stereotypies for 3 hours; also recorded: an increase in the fear reaction (for 2 hours) and in the reactivity to touch (for 24 hours); also recorded: moderate mydriasis
Effect on hypothermia induced by reserpine [2]: as from a dose of 0.5 mg/kg, CRL 41 153 strongly opposes tbe hypothermia
Effect on ptosis induced by reserpine [2]: as from a dose of 0.5 mg/kg, CRL 41 153 strongly opposes tbe hypothermia and ptosis induced by reserpine
Effect of propanolol or atenolol on the action of the product [3]: The increase in the femoral and vertebral flows is suppressed by propanolol
Effects of isoprenaline on the blood pressure [3]: does not modify the effects of isoprenaline on the blood pressure
Reflex bradycardia caused by hypertension [3]: The reflex bradycardia caused by hypertension is converted to tachycardia
α-adrenergic stimulant effect [3]: moderate α-adrenergic stimulant effect
Blood flow through the femoral artery ([3]; oral, 2.5 to 5 mg/kg): increases the blood flow through the femoral artery
Blood flow through the vertebral artery ([3]; oral, 2.5 to 5 mg/kg): increases the blood flow through the femoral artery and the blood flow through the vertebral artery at doses of 2.5 to 5 mg/kg
Affected foetuses, number ([4]; 5 mg/kg daily): 0
Total foetuses (live) ([4]; 5 mg/kg daily): 90
Affected foetuses, % ([4]; 5 mg/kg daily): 0%
Affected foetuses, number ([4]; 10 mg/kg daily): 1
Total foetuses (live) ([4]; 10 mg/kg daily): 88
Affected foetuses, % ([4]; 10 mg/kg daily): 1.13%
Affected foetuses, number ([4]; 50 mg/kg daily): 0
Total foetuses (live) ([4]; 50 mg/kg daily): 93
Affected foetuses, % ([4]; 50 mg/kg daily): 0%

— patent US4980377A, “1-(aminophenyl)-2-aminopropanone derivatives” (Laboratoire L. Lafon, priority 1984, dated 1990)
